Data set [1] has as its system HIF-1α-mediated HRE transcriptional activity. Briefly: Assay for inhibition of HIF-1α-mediated transcriptional activity (HRE reporter assay). Type of data set: cell-based, human. The note with it: 12 hours under hypoxia (1% O2); for inhibition at 10 µM: Homo sapiens, HCT-116, HCT116 cells, read-out: Inhibitory activity against HIF-1α (10 μM). As for the experimental part:
<Experiment 1> Assay for Inhibition of HIF-1α-Mediated Transcriptional Activity (HRE Reporter Assay)
The compounds can be developed as anti-cancer drugs, because the compounds inhibiting HIF-1α-mediated HRE transcriptional activity induced by hypoxia can suppress the growth and metastasis of cancer.
Inhibitory effects of the compounds according to the present invention, from Formula I-1 to I-42, on HIF-1α-mediated transcriptional activity were evaluated using this assay. pGL3-HRE-luciferase vector was constructed as follows. Six copies of HRE (Hypoxia Responsive Element, 5′-ACGTG-3′) from human VEGF genes were inserted into the multi-cloning site of a pGL3-basic vector (Promega). A luciferase gene was used as a reporter gene.
In detail, HCT116(ATCC #CCL-247) human colon cancer cells were seeded in 48-well cell culture plates. The cells were co-transfected with 25 ng of pGL3-HRE-luciferase and 2.5 ng of Renila control vectors using Polyfect reagent next day. After 24 hours of incubation, the cells were incubated for an additional 4 hours with replaced cell culture media. The cells were treated with various concentrations (0, 1, 3, 5, 10, and 20 μM) of the above compounds according to the present invention and incubated for 12 hours under hypoxia (1% O2, 94% N2, and 5% CO2). The luciferase assay was performed using a dual-luciferase reporter assay system (Promega). After cell lysate preparation with RIPA buffer, induced luciferase activity under hypoxic conditions was determined to examine inhibitory effects of the compounds according to the present invention, from Formula I-1 to I-42, on HIF-1α-mediated transcriptional activity.
For orientation: Reporter assays use an easily measured gene product as a stand-in for the process of interest.

Data set [2] deals with HCT116 colon cancer cells. Put plainly: In vivo anti-cancer activity by oral administration, HCT116 tumor in nude mice. The arrangement: species or system BALB/c nu/nu mice. The note with it: for inhibition in vivo at 20 mg/kg: Mus musculus. As for the experimental part: <Example 4> In Vivo Anti-Cancer Activity of Compounds by Oral Administration
(§1) In vivo anti-cancer activity of the compounds according to the present invention, I-3, I-6, I-8, I-16, I-19, I-22, I-23, and I-24, was measured in mice to evaluate in vivo efficacy by oral administration. Specifically, the nude mice were divided into test groups and control groups, each consisting of 4 mice. In vivo efficacy was evaluated by measuring body weight, tumor volume, and tumor weight.
(§2) Female nude mice 6 weeks old (BALB/c nu/nu, Charles River) were bred in germ-free breeding rooms maintained at constant temperature and humidity. After the nude mice were anesthetized, HCT116 colon cancer cells were implanted at a count of […] cells/mouse into the rectum in BALB/c nu/nu mice and then the incisions were closed with surgical clips. The size of tumor was measured by a caliper. When the size of transplanted tumor reached to 50˜60 mm^3, the above compounds according to the present invention were administered. In more detail, after the above compounds in test groups were dissolved at concentration of 20 mg/kg in a solvent containing 80% of physiological saline, 10% of DMAC (dimethylacetamide), and 10% Tween 80 (hereinafter referred to as ‘Solvent A’), […] of dissolved compounds were orally administered once a day. Mice in control groups were treated with […] of Solvent A alone once daily.
(§3) Tumor volume and body weight were measured to identify in vivo anti-cancer activity of the compounds according to the present invention by repetitive oral administration. Tumor volume and tumor growth inhibition (TGI) in Table 2 were calculated according to the below Mathematic FIG. 1 and FIG. 2, respectively. Tumor growth inhibition was converted to a percentage in Table 2.

A short description of data set [3]: Body weight change and side effects during 14 days of oral treatment in nude mice. Type of data set: in vivo, BALB/c nu/nu mice. The method, then: as §1, §2, §3
Moreover, severe side effects and statistically significant changes of body weight in all mice treated compounds were not shown for 14 days, comparing to control groups treated with vehicle. (Table 3)

[4] abbreviates: day 3, 20 mg/kg oral once a day.
[5] abbreviates: day 5, 20 mg/kg oral once a day.
Where [6] appears, read: day 7, 20 mg/kg oral once a day.
Where [7] appears, read: day 10, 20 mg/kg oral once a day.
[8] abbreviates: day 12, 20 mg/kg oral once a day.
Setting [9] is: day 14, 20 mg/kg oral once a day.

Structures are written as SMILES. Where two headings read alike, the source gives them in different places.

With `CN1CCN(c2ccc(NC(=O)COc3ccc(C45CC6CC(CC(C6)C4)C5)cc3)cc2)CC1` [Compound I-37, 2-(4-(Adamantan-1-yl)phenoxy)-N-(4-(4-methylpiperazin-1-yl)phenyl)acetamide], the inhibition at 10 µM in data set [1] lay in the range of 1 to 25%.

With `O=C(COc1ccc(C23CC4CC(CC(C4)C2)C3)cc1)NC1CC1` [Compound I-2, 2-(4-(Adamantan-1-yl)phenoxy)-N-cyclopropylacetamide], the inhibition at 10 µM in data set [1] is 76 to 100%.

Take `Cc1cc(C23CC4CC(CC(C4)C2)C3)ccc1OCC(=O)NCC[N+](C)(C)C` [Compound I-17, 2-(2-(4-(Adamantan-1-yl)-2-methylphenoxy)acetamido)-N,N,N-trimethylethanaminium iodide]: in data set [1], the inhibition at 10 µM fell in the range of 26 to 50%.

For `C#CCN1CCN(C(=O)COc2ccc(C34CC5CC(CC(C5)C3)C4)cc2)CC1` [Compound I-36, 2-(4-(Adamantan-1-yl)phenoxy)-1-(4-(prop-2-yn-1-yl)piperazin-1-yl)ethanone], in data set [1], the inhibition at 10 µM was in the range of 51 to 75%.

Consider `Cc1cc(C23CC4CC(CC(C4)C2)C3)ccc1OCCC(=O)NCCN(C)C` [Compound I-13, 3-(4-(Adamantan-1-yl)-2-methylphenoxy)-N-(2-(dimethylamino)ethyl)propanamide], for which the inhibition at 10 µM in data set [1] fell in the range of 51 to 75%.

For `Cc1cc(C23CC4CC(CC(C4)C2)C3)ccc1OCCC(=O)N1CCOCC1` [Compound I-12, 3-(4-(Adamantan-1-yl)-2-methylphenoxy)-1-morpholinopropan-1-one], in data set [1], the inhibition at 10 µM lay within 76 to 100%.

As for `O=C(COc1ccc(C23CC4CC(CC(C4)C2)C3)cc1)NCc1ccco1` [Compound I-26, 2-(4-(Adamantan-1-yl)phenoxy)-N-(furan-2-ylmethyl)acetamide], in data set [1], the inhibition at 10 µM is 76 to 100%.

With `CN1CCN(C(=O)C(C)(C)Oc2ccc(C34CC5CC(CC(C5)C3)C4)cc2)CC1` [Compound I-23, 2-(4-(Adamantan-1-yl)phenoxy)-2-methyl-1-(4-methylpiperazin-1-yl)propan-1-one], the inhibition in vivo at 20 mg/kg stood at 13.5% in data set [2] (HCT-116, 72 h, day 3, 20 mg/kg oral once a day, read-out: TGI (tumor growth inhibition), tumor volume); 14.8% in data set [2] (HCT-116, 120 h, day 5, 20 mg/kg oral once a day, read-out: TGI (tumor growth inhibition), tumor volume); 12.7% in data set [2] (HCT-116, 168 h, day 7, 20 mg/kg oral once a day, read-out: TGI (tumor growth inhibition), tumor volume); 13.1% in data set [2] (HCT-116, 240 h, day 10, 20 mg/kg oral once a day, read-out: TGI (tumor growth inhibition), tumor volume); 13.1% in data set [2] (HCT-116, 288 h, day 12, 20 mg/kg oral once a day, read-out: TGI (tumor growth inhibition), tumor volume); 14.6% in data set [2] (HCT-116, 336 h, day 14, 20 mg/kg oral once a day, read-out: TGI (tumor growth inhibition), tumor volume). Besides, the inhibition in vivo at 20 mg/kg in data set [2] (HCT-116, 336 h, day 14, 20 mg/kg oral once a day, read-out: TGI (tumor growth inhibition), tumor weight) stood at 14.5%. In addition, the Tumor volume in data set [2] (setting [4]) was found to be 40.9 ± 8.2 mm^3; in data set [2] (setting [5]), 98.0 ± 13.9 mm^3; in data set [2] (setting [6]), 182.4 ± 19.9 mm^3; in data set [2] (setting [7]) it was 352.7 ± 53.6 mm^3; in data set [2] (setting [8]), 577.3 ± 74.1 mm^3; in data set [2] (setting [9]), 987.6 ± 143.7 mm^3. For the same molecule, in data set [2] (setting [9]), the Tumor weight is recorded as 3659.9 ± 434.8 mg. The Body weight change is reported as 100.0 ± 0.0% in data set [3] (day 0, 20 mg/kg oral once a day); 100.8 ± 1.1% in data set [3] (setting [4]); 101.0 ± 1.6% in data set [3] (setting [5]); 100.9 ± 0.7% in data set [3] (setting [6]); 101.9 ± 1.1% in data set [3] (setting [7]); 101.6 ± 1.3% in data set [3] (setting [8]). The molecule also had a Body weight change in data set [3] (setting [9]) of 102.0 ± 2.0%. Moreover, in data set [1], the inhibition at 10 µM fell in the range of 76 to 100%.

Consider `CN1CCN(C(=O)COc2ccc(C34CC5CC(CC(C5)C3)C4)cc2)CC1.Cl` [Compound I-4, 4-(2-(4-(Adamantan-1-yl)phenoxy)acetyl)-1-methylpiperazin-1-ium chloride], for which the “Inhibitory activity against HIF-1α (10 μM)” value in data set [1] (HCT116 cells) is recorded as “A (A(76˜100%))”.

Consider `CN(C)C(=O)COc1ccc(C23CC4CC(CC(C4)C2)C3)cc1` [Compound I-1, 2-(4-(Adamantan-1-yl)phenoxy)-N,N-dimethylacetamide], for which the inhibition at 10 µM in data set [1] was 51 to 75%.

As for `C[N+]1(C)CCN(C(=O)COc2ccc(C34CC5CC(CC(C5)C3)C4)cc2)CC1` [Compound I-15, 4-(2-(4-(Adamantan-1-yl)phenoxy)acetyl)-1,1-dimethylpiperazine-1-ium iodide], in data set [1], the inhibition at 10 µM fell in the range of 26 to 50%.

With `C[C@@H]1CN(C(=O)OC(C)(C)C)CCN1C(=O)COc1ccc(C23CC4CC(CC(C4)C2)C3)cc1` [Compound I-33, (R)-tert-Butyl 4-(2-(4-(Adamantan-1-yl)phenoxy)acetyl)-3-methylpiperazine-1-carboxylate], the inhibition at 10 µM in data set [1] was 76 to 100%.

Turning to `O=C(COc1ccc(C23CC4CC(CC(C4)C2)C3)cc1)N1CCn2c(nnc2C(F)(F)F)C1` [Compound I-39, 2-(4-(Adamantan-1-yl)phenoxy)-1-(3-(trifluoromethyl)-5,6-dihydro-[1,2,4]triazolo[4,3-a]pyrazin-7(8H)-yl)ethanone], the inhibition at 10 µM in data set [1] fell in the range of 26 to 50%.

`CC(C)(C)OC(=O)N1CCN(C(=O)COc2ccc(C34CC5CC(CC(C5)C3)C4)cc2)CC1` [Compound I-29, tert-Butyl 4-(2-(4-(adamantan-1-yl)phenoxy)acetyl)piperazine-1-carboxylate]: in data set [1], the inhibition at 10 µM fell in the range of 51 to 75%.

On to `Cc1cc(C23CC4CC(CC(C4)C2)C3)ccc1OCCC(=O)NCC[N+](C)(C)C` [Compound I-21, 2-(3-(4-(Adamantan-1-yl)-2-methylphenoxy)propanamido)-N,N,N-trimethylethanaminium iodide], for which the inhibition at 10 µM in data set [1] was in the range of 26 to 50%.

On to `O=C(COc1ccc(C23CC4CC(CC(C4)C2)C3)cc1)NC12CC3CC(CC(C3)C1)C2` [Compound I-40, N-(adamantan-1-yl)-2-(4-(adamantan-1-yl)phenoxy)acetamide], for which, in data set [1], the inhibition at 10 µM lay in the range of 1 to 25%.

`Cc1cc(C23CC4CC(CC(C4)C2)C3)ccc1OCCC(=O)N1CC[N+](C)(C)CC1` [Compound I-20, 4-(3-(4-(Adamantan-1-yl)-2-methylphenoxy)propanoyl)-1,1-dimethylpiperazin-1-ium iodide]: the inhibition at 10 µM in data set [1] lay in the range of 76 to 100%.

Consider `C[C@@H]1CNCCN1C(=O)COc1ccc(C23CC4CC(CC(C4)C2)C3)cc1` [Compound I-34, 2-(4-(Adamantan-1-yl)phenoxy)-1-((R)-2-methylpiperazin-1-yl)ethanone], for which the inhibition at 10 µM in data set [1] lay within 51 to 75%.

Consider `O=C(COc1ccc(C23CC4CC(CC(C4)C2)C3)cc1)NC12CC3CC(CC(O)(C3)C1)C2` [Compound I-41, 2-(4-(Adamantan-1-yl)phenoxy)-N-(3-hydroxyadamantan-1-yl)acetamide], for which, in data set [1], the inhibition at 10 µM is 76 to 100%.

(Values after US9789114B2, “Compounds as HIF-1α inhibitors and manufacturing process thereof” (DONGGUK UNIVERSITY INDUSTRY-ACADEMIC COOPERATION FOUNDATION, priority 2011, dated 2017).)
